Results taken from patent US20230303575A1, “FGFR AND MUTATION INHIBITOR THEREOF, PREPARATION METHOD THEREFOR AND USE THEREOF” (Abbisko Therapeutics Co., Ltd., priority 2020, published 2023).

Assays:
Assay type in all cases: cell-based
FGFR2 V564F = target: T1, FGFR2 V564F (Homo sapiens, UniProt P21802, V564F); assay: Cell proliferation assay for Tel-FGFR2 V564F in BaF3; conditions: BaF3 cells expressing FGFR2 V564F fusion, 48 hrs, CellTiter Glo
T1 construct: P41212 (Transcription factor ETV6)
Experimental: (§1) By transfection, cell strains of the intracellular kinase domain fusion protein of TEL-FGFR2 WT or the intracellular domain fusion proteins containing FGFR2 V564, V564F, V564L, N549K and K659M mutations were stably expressed in Baf cells. On day 1, the cell suspension was plated into a 96-well plate containing growth medium (DMEM containing 1% Glutamax, 10% FBS and 1% Pen/Strep) at 2000-4000 cells/90 μL/per well, and then the mixture was incubated overnight at 37° C. and 5% CO2. On day 2, 10 μL of growth medium containing a 10-fold stock solution of test compound was added to the cell culture (9 dose points, 3× serial dilution, starting from 1 μM, finally 0.3% DMSO). After incubation at 37° C. and 5% CO2 for 48 hrs, 50 μL of CellTiter Glo (CTG) reagent was added to the cell-containing 96-well plate on day 3, and the plate was then incubated at room temperature for 10 min. Then relative light units (RLUs) were measured on a microplate reader with a luminescence detection module. RLU values were normalized to % survival, and concentration-response curves were plotted using Prism to calculate IC50 (nM).

FGFR3 V555M = target: T2, FGFR3 V555M (Homo sapiens, UniProt P22607, V555M); assay: Cell proliferation assay for FGFR3 V555M in BaF3; conditions: BaF3 cells expressing FGFR3 V555M fusion, 48 hrs, CellTiter Glo
T2 construct: P41212 (Transcription factor ETV6)
Experimental: For the compounds of the Examples of the present invention, cell strains of TEL-FGFR3 WT intracellular kinase domain fusion protein or intracellular domain fusion protein containing FGFR3 V555M or FGFR3 N540K mutation were stably expressed in Baf cells by transfection and were used to determine the cell proliferation effect of BaF3-Tel-FGFR3 WT. FGFR3 V555M or FGFR3 N540K. The specific test process was as follows: • 1) The cell suspension was plated into a 96-well plate containing growth medium (DMEM containing 1% Glutamax, 10% FBS and 1% Pen/Strep) at 2000-4000 cells/90 μL/per well, and then the mixture was incubated overnight at 37° C. and 5% CO2. • 2) 10 μL of growth medium containing a 10-fold stock solution of test compound was added to the cell culture (9 dose points, 3× serial dilution, starting from 1 μM, finally 0.3% DMSO). • 3) The mixture was incubated at 37° C. and 5% CO2 for 48 hrs. • 4) 50 μL of CellTiter Glo (CTG) reagent was added to the cell-containing 96-well plate, and the plate was then incubated at room temperature for 10 min. • 5) Relative light units (RLUs) were measured on a microplate reader with a luminescence detection module. RLU values were normalized to % survival, and concentration-response curves were plotted using Prism to calculate IC50 (nM).

FGFR2 V564L = target: T3, FGFR2 V564L (Homo sapiens, UniProt P21802, V564L); assay: Cell proliferation assay for Tel-FGFR2 V564L in BaF3; conditions: BaF3 cells expressing FGFR2 V564L fusion, 48 hrs, CellTiter Glo
T3 construct: P41212 (Transcription factor ETV6)
Experimental: as §1

FGFR2 V564I = target: T4, FGFR2 V564I (Homo sapiens, UniProt P21802, V564I); assay: Cell proliferation assay for Tel-FGFR2 V564I in BaF3; conditions: BaF3 cells expressing FGFR2 V564I fusion, 48 hrs, CellTiter Glo
T4 construct: P41212 (Transcription factor ETV6)
Experimental: as §1

FGFR2 N549K = target: T5, FGFR2 N549K (Homo sapiens, UniProt P21802, N549K); assay: Cell proliferation assay for Tel-FGFR2 N549K in BaF3; conditions: BaF3 cells expressing FGFR2 N549K fusion, 48 hrs, CellTiter Glo
T5 construct: P41212 (Transcription factor ETV6)
Experimental: as §1

FGFR2 K659M = target: T6, FGFR2 K659M (Homo sapiens, UniProt P21802, K659M); assay: Cell proliferation assay for Tel-FGFR2 K659M in BaF3; conditions: BaF3 cells expressing FGFR2 K659M fusion, 48 hrs, CellTiter Glo
T6 construct: P41212 (Transcription factor ETV6)
Experimental: as §1

T3 sequence (P21802 481-770 V564L limits assumed): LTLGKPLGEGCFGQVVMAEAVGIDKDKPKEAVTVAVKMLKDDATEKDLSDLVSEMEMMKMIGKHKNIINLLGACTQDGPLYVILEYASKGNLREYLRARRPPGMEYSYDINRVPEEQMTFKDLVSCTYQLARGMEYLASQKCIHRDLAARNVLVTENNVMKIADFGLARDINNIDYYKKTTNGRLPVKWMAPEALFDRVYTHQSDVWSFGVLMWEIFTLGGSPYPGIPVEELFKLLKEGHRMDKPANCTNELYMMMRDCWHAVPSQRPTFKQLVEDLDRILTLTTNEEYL
T5 sequence (P21802 481-770 N549K limits assumed): as the sequence (P21802 481-770 V564L limits assumed) above, with N69K, L84V counted along it
T1 sequence (P21802 481-770 V564F limits assumed): as the sequence (P21802 481-770 V564L limits assumed) above, with L84F counted along it
T4 sequence (P21802 481-770 V564I limits assumed): as the sequence (P21802 481-770 V564L limits assumed) above, with L84I counted along it
T6 sequence (P21802 481-770 K659M limits assumed): as the sequence (P21802 481-770 V564L limits assumed) above, with L84V, K179M counted along it
T2 sequence (P22607 472-761 V555M limits assumed): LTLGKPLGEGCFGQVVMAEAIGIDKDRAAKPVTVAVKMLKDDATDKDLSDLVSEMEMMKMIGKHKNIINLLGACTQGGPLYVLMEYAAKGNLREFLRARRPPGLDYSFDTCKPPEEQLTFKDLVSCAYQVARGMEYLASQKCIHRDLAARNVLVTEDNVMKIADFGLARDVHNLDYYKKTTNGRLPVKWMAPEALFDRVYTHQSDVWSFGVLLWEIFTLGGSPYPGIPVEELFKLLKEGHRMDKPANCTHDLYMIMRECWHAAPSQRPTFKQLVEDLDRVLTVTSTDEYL

Row | IC50 (FGFR2 V564F) | IC50 (FGFR3 V555M) | IC50 (FGFR2 V564L) | IC50 (FGFR2 V564I) | IC50 (FGFR2 N549K) | IC50 (FGFR2 K659M) | Compound
1 | ≤ 0.5 nM | 5 to 50 nM | 0.5 to 5 nM | ≤ 0.5 nM | 0.5 to 5 nM |  | C=CC(=O)N1CC[C@H](n2nc(C#Cc3cc4nc(C)sc4cc3F)c3c(N)ncnc32)C1 [Example 57, (S)-1-(3-(4-amino-3-((6-fluoro-2-methylbenzo[d]thiazol-5-yl)ethynyl)-1H-pyrazolo[3,4-d]pyrimidin-1-yl)pyrrolidin-1-yl)prop-2-en-1-one]
2 | ≤ 0.5 nM | 0.5 to 5 nM |  | ≤ 0.5 nM |  | 0.5 to 5 nM | C=CC(=O)N1CC[C@H](n2nc(C#Cc3cc4nc(C5(F)CC5)oc4cc3F)c3c(N)ncnc32)C1 [Example 36]
3 | ≤ 0.5 nM | 0.5 to 5 nM | 0.5 to 5 nM | ≤ 0.5 nM | 0.5 to 5 nM |  | C=CC(=O)N1CC[C@H](n2cc(C#Cc3c(F)cc4sc(C5CC5)nc4c3F)c3c(N)ncnc32)C1 [Example 51, (S)-1-(3-(4-amino-5-((2-cyclopropyl-4,6-difluoro-benzo[d]thiazol-5-yl)ethynyl)-7H-pyrrolo[2,3-d]pyrimidin-7-yl)pyrrolidin-1-yl) prop-2-en-1-one]
4 | 5 to 50 nM | 50 to 500 nM | 0.5 to 5 nM |  | 5 to 50 nM |  | C=CC(=O)N1CC[C@H](n2nc(C#Cc3cnc4sc(C)nc4c3)c3c(N)ncnc32)C1 [Example 41, (S)-1-(3-(4-amino-3-((2-methylthiazolo[5,4-6]pyridin-6-yl)ethynyl)-1H-pyrazolo [3,4-d]pyrimidin-1-yl)pyrrolidin-1-yl)prop-2-en-1-one]
5 | 0.5 to 5 nM | 0.5 to 5 nM | 0.5 to 5 nM | ≤ 0.5 nM | 0.5 to 5 nM |  | C=CC(=O)N1CC[C@H](n2cc(C#Cc3cc4nc(C5CC5)sc4cc3F)c3c(N)ncnc32)C1 [Example 48, (S)-1-(3-(4-amino-5-((2-cyclopropyl-6-fluorobenzo [d]thiazol-5-yl)ethynyl)-7H-pyrrolo[2,3-d]pyrimidin-7-yl)pyrrolidin-1-yl)prop-2-en-1-one]
6 | ≤ 0.5 nM | 5 to 50 nM | 0.5 to 5 nM |  | 0.5 to 5 nM | 5 to 50 nM | C=CC(=O)N1CC[C@H](n2cc(C#Cc3ccc4sc(C)nc4c3)c3c(N)ncnc32)C1 [Example 42, (S)-1-(3-(4-amino-5-((2-methylbenzo[d]thiazol-5-yl)ethynyl)-7H-pyrrolo[2,3-d]pyrimidin-7-yl)pyrrolidin-1-yl)prop-2-en-1-one]
7 | ≤ 0.5 nM | ≤ 0.5 nM | 0.5 to 5 nM |  | 0.5 to 5 nM | 5 to 50 nM | C=CC(=O)N1C[C@@H](n2nc(C#Cc3c(F)cc4sc(N5CCC5)nc4c3F)c3c(N)ncnc32)C[C@@H]1COC [Example 69, 1-((2R,4S)-4-(4-amino-3-((2-(azetidin-1-yl)-4,6-difluorobenzo[d]thiazol-5-yl)ethynyl)-1H-pyrazolo[3,4-d]pyrimidin-1-yl)-2-(methoxy-methyl)pyrrolidin-1-yl)prop-2-en-1-one]
8 | 0.5 to 5 nM | 5 to 50 nM | 0.5 to 5 nM |  | 0.5 to 5 nM |  | C=CC(=O)N1CC[C@H](n2cc(C#Cc3ccc4sc(C(F)F)nc4c3)c3c(N)ncnc32)C1 [Example 45, (S)-1-(3-(4-amino-5-((2-(difluoromethyl)benzo[d]thiazol-5-yl)ethynyl)-7H-pyrrolo[2,3-d]pyrimidin-7-yl)pyrrolidin-1-yl)prop-2-en-1-one]
9 | 0.5 to 5 nM | 0.5 to 5 nM | 0.5 to 5 nM | ≤ 0.5 nM | 0.5 to 5 nM |  | C=CC(=O)N1CC[C@H](n2nc(C#Cc3cc4nc(C5CC5)sc4cc3F)c3c(N)ncnc32)C1 [Example 59, (S)-1-(3-(4-amino-3-((2-cyclopropyl-6-fluorobenzo [d]thiazol-5-yl)ethynyl)-1H-pyrazolo[3,4-d]pyrimidin-1-yl)pyrrolidin-1-yl) prop-2-en-1-one]
10 | 0.5 to 5 nM | 5 to 50 nM | 5 to 50 nM |  | 5 to 50 nM |  | C=CC(=O)N1CC[C@H](n2cc(C#Cc3ccc4oc(NC)nc4c3)c3c(N)ncnc32)C1 [Example 7, (S)-1-(3-(4-amino-5-((2-(methylamino)benzo[d]oxazol-5-yl)ethynyl)-7H-pyrrolo[2,3-d]pyrimidin-7-yl)pyrrolidin-1-yl)prop-2-en-1-one]
11 | ≤ 0.5 nM | 5 to 50 nM | 0.5 to 5 nM |  | 0.5 to 5 nM |  | C=CC(=O)N1CC[C@H](n2cc(C#Cc3ccc4oc(C)nc4c3)c3c(N)ncnc32)C1 [Example 2, (S)-1-(3-(4-amino-5-((2-methylbenzo[d]oxazol-5-yl)ethynyl)-7H-pyrrolo[2,3-d]pyrimidin-7-yl)pyrrolidin-1-yl)prop-2-en-1-one]
12 | 0.5 to 5 nM | 5 to 50 nM | 0.5 to 5 nM |  | 0.5 to 5 nM |  | C=CC(=O)N1CC[C@H](n2cc(C#Cc3ccc4oc(CC)nc4c3)c3c(N)ncnc32)C1 [Example 3, (S)-1-(3-(4-amino-5-((2-ethylbenzo[d]oxazol-5-yl)ethynyl)-7H-pyrrolo[2,3-d]pyrimidin-7-yl)pyrrolidin-1-yl)prop-2-en-1-one]
13 | 0.5 to 5 nM | 5 to 50 nM | 0.5 to 5 nM |  | 0.5 to 5 nM |  | C=CC(=O)N1CC[C@H](n2nc(C#Cc3ccc4sc(C5CC5)nc4c3)c3c(N)ncnc32)C1 [Example 54, (S)-1-(3-(4-amino-3-((2-cyclopropylbenzo[d]thiazol-5-yl)ethynyl)-1H-pyrazolo [3,4-d]pyrimidin-1-yl)pyrrolidin-1-yl)prop-2-en-1-one]
14 | 0.5 to 5 nM | 5 to 50 nM | 5 to 50 nM |  | 5 to 50 nM |  | C=CC(=O)N1CC[C@H](n2nc(C#Cc3ccc4sc(C)nc4c3)c3c(N)ncnc32)C1 [Example 52, (S)-1-(3-(4-amino-3-((2-methylbenzo[d]thiazol-5-yl)ethynyl)-1H-pyrazolo [3,4-d]pyrimidin-1-yl)pyrrolidin-1-yl)prop-2-en-1-one]
15 | 0.5 to 5 nM | 5 to 50 nM | 0.5 to 5 nM | ≤ 0.5 nM | 0.5 to 5 nM |  | C=CC(=O)N1CC[C@H](n2nc(C#Cc3ccc4sc(CC)nc4c3)c3c(N)ncnc32)C1 [Example 53, (S)-1-(3-(4-amino-3-((2-ethylbenzo[d]thiazol-5-yl)ethynyl)-1H-pyrazolo[3,4-d]pyrimidin-1-yl)pyrrolidin-1-yl)prop-2-en-1-one]
16 | 0.5 to 5 nM | 5 to 50 nM | 5 to 50 nM |  | 0.5 to 5 nM |  | C=CC(=O)N1CC[C@H](n2cc(C#Cc3ccc4oc(C(F)F)nc4c3)c3c(N)ncnc32)C1 [Example 71, (S)-1-(3-(4-amino-5-((2-(difluoromethyl)benzo[d]oxazol-5-yl)ethynyl)-7H-pyrrolo[2,3-d]pyrimidin-7-yl)pyrrolidin-1-yl)prop-2-en-1-one]
17 | 5 to 50 nM | 5 to 50 nM | 5 to 50 nM |  | 0.5 to 5 nM |  | C=CC(=O)N1CC[C@H](n2nc(C#Cc3ccc4sc(C(F)F)nc4c3)c3c(N)ncnc32)C1 [Example 55, (S)-1-(3-(4-amino-3-((2-(difluoromethyl)benzo[d]thiazol-5-yl)ethynyl)-1H-pyrazolo[3,4-d]pyrimidin-1-yl)pyrrolidin-1-yl)prop-2-en-1-one]
18 | 0.5 to 5 nM | 5 to 50 nM | 0.5 to 5 nM | ≤ 0.5 nM | 0.5 to 5 nM |  | C=CC(=O)N1CC[C@H](n2cc(C#Cc3ccc4sc(CC)nc4c3)c3c(N)ncnc32)C1 [Example 44, (S)-1-(3-(4-amino-5-((2-ethylbenzo[d]thiazol-5-yl)ethynyl)-7H-pyrrolo[2,3-d]pyrimidin-7-yl)pyrrolidin-1-yl)prop-2-en-1-one]
